Results taken from patent US20260146025A1, “CRYSTALLINE POLYMORPHS OF MITAPIVAT AND MITAPIVAT HEMISULFATE” (TIANISH LABORATORIES PRIVATE LIMITED, priority 2022, published 2026).
Counter-ions that a name gives are not always drawn.

Experiment: Physical stability of polymorphs on storage, tested by PXRD
Format: physicochemical
Settings: for physical stability (PXRD analysis): up to three months
Method: The powder X-ray diffraction patterns of said polymorphs of the invention were measured on a PANalytical X′Pert PRO powder diffractometer equipped with a goniometer of θ/θ configuration and X'Celerator detector. The Cu-anode X-ray tube was operated at 40 kV and 30 mA. The experiments were conducted over the 2θ range of 2.0°-50.0°, 0.0330 step size and 50 seconds step time.
In yet another embodiment, the physical stability of crystalline mitapivat hemi sulfate Form VII and crystalline mitapivat hemi sulfate Form XI were determined by storing the samples at 40° C./75% relative humidity (RH) and at 25° C./60% RH conditions for three months as shown in Table 1.

| PXRD (physical stability) (stored at 40° C./75% RH, 2 months) | physical stability (PXRD analysis) (25° C./60% relative humidity (RH)) | physical stability (PXRD analysis) (40° C./75% relative humidity (RH)) | PXRD (physical stability) (stored at 25° C./60% RH, 1 month) | PXRD (physical stability) (stored at 25° C./60% RH, 2 months) | PXRD (physical stability) (stored at 25° C./60% RH, 3 months) | PXRD (physical stability) (stored at 40° C./75% RH, 1 month) | PXRD (physical stability) (stored at 40° C./75% RH, 3 months) | SMILES |
| --- | --- | --- | --- | --- | --- | --- | --- | --- |
| Stable |  |  |  |  |  |  |  | O=C(c1ccc(NS(=O)(=O)c2cccc3cccnc23)cc1)N1CCN(CC2CC2)CC1 [Mitapivat hemi sulfate Form XI, 8-quinolinesulfonamide, N-[4-[[4(cyclopropylmethyl)-1-piperazinyl]carbonyl]phenyl]-, sulfate] |
|  | physically stable | physically stable | Stable | Stable | Stable | Stable | Stable | O=C(c1ccc(NS(=O)(=O)c2cccc3cccnc23)cc1)N1CCN(CC2CC2)CC1 [Mitapivat hemi sulfate Form VII, 8-quinolinesulfonamide, N-[4-[[4(cyclopropylmethyl)-1-piperazinyl]carbonyl]phenyl]-, sulfate] |
